Measured values published in patent US20100184675A1, “USE OF GLUCAGON (1-29) ALONE OR IN COMBINATION WITH NEUROPEPTIDE W30 AS A THERAPEUTIC AGENT” (priority 2007, published 2010).
Ends that are not written are not given here.

How the values were obtained:
HIV-1IIIB = experiment: HIV-1 antiviral assay in CEM-SS cells; settings: peptides 10 micrograms per ml, 6 days post-infection
HCMV strain AD169 = experiment: HCMV plaque formation assay in MRC-5 cells; settings: peptides 10 micrograms per ml, 7-10 days
HUVEC = experiment: Endothelial tube formation assay; type: cell-based, human; settings: 10 micrograms per ml; 20 hours
Experimental: The endothelial tube formation assay is based on the ability of endothelial cells to form three-dimensional capillary-like tubular structures when cultured on a gel of basement membrane extract. […] Pre-labeled HUVEC with Calcein AM were seeded in a 96-well culture plate coated with extracellular metrix (Chemicon international Cat. […] Positive control was vehicle only. […] Duplicate wells for each treatment were photographed and quantitatevily analyzed for an average tubule length using image analysis software ImageProPlus. Raw data were expressed as average tubule lengths in pixels ±standard deviation. Statistic p values were computed using the Student's t-test.

murine spleen cells = experiment: Th1/Th2 cytokine profiling assay (Ovalbumin-restimulated spleen cells); type: cell-based, Balb/c mice; settings: 10 micrograms per ml; 72 hours; combination 0.95 mole peptide 1 and 1.05 mole peptide 2
Experimental: On day 50, spleens of the mice were harvested (3 weeks after last boost with Ovalbumin). Cells were cultured (2×10^5/well in triplicate) and incubated with culture medium or test peptides—10 micrograms per ml—for 30 min. Thereafter, additional Ovalbumin was added to the cells at 10 micrograms/ml for in vitro restimulation of the cells. 72 hours later, cell supernatants were harvested and assayed using the Becton Dickinson Mouse Th1/Th2 Cytokine CBA Kit.

[1] = tested on: hepatitis B virus (HBV) ayw strain; experiment: HBV experimental assay system (HepG2-2.2.15, secreted HBV DNA by TaqMan PCR); type: cell-based; settings: 10 micrograms per ml; 6 days; combination 0.95 mole peptide 1 and 1.05 mole peptide 2
Experimental: HepG2-2.2.15 cells were plated in 96-well microtiter plates. After 16-24 hours the confluent monolayer of HepG2-2.2.15 cells was washed and the medium was replaced with complete medium containing test peptides—10 micrograms per ml—in duplicate. Lamivudine (3TC) was used as the positive control, while media alone was added to the cells as a negative control (virus control). Three days later the culture medium was replaced with fresh medium containing the peptides. Six days following the initial administration of the peptides, the cell culture supernatants was collected, treated with pronase and DNAse and then used in a real-time quantitative TaqMan PCR assay. The PCR-amplified HBV DNA was detected in real-time by monitoring increases in fluorescence signals that result from the exonucleolytic degradation of a quenched fluorescence probe molecule that hybridizes to the amplified HBV DNA. For each PCR amplification, a standard curve was simultaneously generated using dilutions of purified HBV DNA. Antiviral activity was calculated from the reduction in HBV DNA levels (% virus control). A novel dye uptake assay was then employed to measure cell viability, which is used to calculate toxicity (% cell control).

[2] = tested on: Primary Human endothelial cells (HUVEC); experiment: Endothelial cell migration assay; type: cell-based; settings: 10 micrograms per ml; 22 hours

Cc1cn([C@H]2C[C@H](N=[N+]=[N-])[C@@H](CO)O2)c(=O)[nH]c1=O [AZT]
inhibition of HIV-1 activity on tested T-cells (HIV-1IIIB): expected levels of antiviral activity

Nc1nc(O)c2ncn(COC(CO)CO)c2n1 [Ganciclovir, reference compound]
inhibition of HCMV plaque formation as compared to the virus control (HCMV strain AD169): expected levels of antiviral activity

CC(C)(C)NC(=O)[C@@H]1CN(Cc2cccnc2)CCN1C[C@@H](O)C[C@@H](Cc1ccccc1)C(=O)N[C@H]1c2ccccc2C[C@H]1O [indinavir]
inhibition of HIV-1 activity on tested T-cells (HIV-1IIIB): expected levels of antiviral activity

Trp-Tyr-Lys-His-Val-Ala-Ser-Pro-Arg-Tyr-His-Thr-Val-Gly-Arg-Ala-Ala-Gly-Leu-Leu-Met-Gly-Leu-Arg-Arg-Ser-Pro-Tyr-Leu-Trp-OH (WYKHVASPRYHTVGRAAGLLMGLRRSPYLW-OH) [Peptide 2, Neuropeptide W-30, commercially available known peptide]
inhibition of the tube formation of human endothelial cells (HUVEC): 16%
change of the production of IFN-γ (figure = decreased by) (murine spleen cells): 25.5%
change of the production of IL-2 (figures = increased by) (murine spleen cells): 82.1%
change of the production of IL-4 (figure = induced by) (murine spleen cells): did not significantly change
change of the production of IL-5 (figures = decreased by) (murine spleen cells): 29.3%
change of the production of TNF-alpha (murine spleen cells): did not significantly change
inhibition of HBV replication as compared to the virus control infection [1]: 10.7%
inhibition of HCMV plaque formation as compared to the virus control (HCMV strain AD169): did not inhibit
inhibition of the migration of human endothelial cells [2]: 17%
